Results as given in ChEMBL document CHEMBL4038335, “Neuroactive Steroids. 2. 3α-Hydroxy-3β-methyl-21-(4-cyano-1H-pyrazol-1'-yl)-19-nor-5β-pregnan-20-one (SAGE-217): A Clinical Next Generation Neuroactive Steroid Positive Allosteric Modulator of the (γ-Aminobutyric Acid)A Receptor” (J Med Chem, 2017).
Converted amounts (≈) assume the structure as drawn.

Experiments:
[1] = target: T1, GABA-A receptor; alpha-1/beta-2/gamma-2 (Homo sapiens, UniProt P14867+P18507+P47870); test: (§1) Positive allosteric modulation of GABAA receptor alpha1beta2gamma2 (unknown origin) expressed in mouse LTK cells assessed as potentiation of GABA-mediated increase in channel current under holding potential at -80 mV preincubated for 30 secs followed by GABA stimulation for 2 secs by automated patch clamp assay; type: cell-based
T1 sequence (P14867 whole entry): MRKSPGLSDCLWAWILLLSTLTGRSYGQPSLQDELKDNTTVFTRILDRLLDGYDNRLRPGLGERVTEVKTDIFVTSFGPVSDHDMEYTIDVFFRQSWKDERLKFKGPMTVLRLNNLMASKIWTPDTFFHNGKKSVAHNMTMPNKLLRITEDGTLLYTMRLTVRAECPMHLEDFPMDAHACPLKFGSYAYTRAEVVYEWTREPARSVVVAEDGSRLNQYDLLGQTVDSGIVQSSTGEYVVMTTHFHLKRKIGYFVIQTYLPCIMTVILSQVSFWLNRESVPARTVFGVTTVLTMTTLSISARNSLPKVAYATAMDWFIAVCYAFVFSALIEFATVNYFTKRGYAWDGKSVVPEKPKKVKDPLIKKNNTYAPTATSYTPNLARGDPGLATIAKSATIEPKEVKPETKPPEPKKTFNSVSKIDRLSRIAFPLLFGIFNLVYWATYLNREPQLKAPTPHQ
T1 sequence (P47870 whole entry): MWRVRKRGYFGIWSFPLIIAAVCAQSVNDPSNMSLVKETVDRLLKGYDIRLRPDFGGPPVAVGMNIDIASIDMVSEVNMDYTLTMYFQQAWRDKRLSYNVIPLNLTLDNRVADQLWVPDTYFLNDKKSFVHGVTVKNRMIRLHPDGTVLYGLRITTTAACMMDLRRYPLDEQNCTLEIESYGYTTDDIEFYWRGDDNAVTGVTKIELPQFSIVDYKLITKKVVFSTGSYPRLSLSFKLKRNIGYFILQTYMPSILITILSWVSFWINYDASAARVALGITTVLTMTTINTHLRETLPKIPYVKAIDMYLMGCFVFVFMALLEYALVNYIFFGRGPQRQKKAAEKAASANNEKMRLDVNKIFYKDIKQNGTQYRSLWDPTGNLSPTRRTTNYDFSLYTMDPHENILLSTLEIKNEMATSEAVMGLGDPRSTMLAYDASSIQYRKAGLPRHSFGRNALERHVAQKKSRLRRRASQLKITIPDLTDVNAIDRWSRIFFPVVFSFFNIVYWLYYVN
T1 sequence (P18507 whole entry): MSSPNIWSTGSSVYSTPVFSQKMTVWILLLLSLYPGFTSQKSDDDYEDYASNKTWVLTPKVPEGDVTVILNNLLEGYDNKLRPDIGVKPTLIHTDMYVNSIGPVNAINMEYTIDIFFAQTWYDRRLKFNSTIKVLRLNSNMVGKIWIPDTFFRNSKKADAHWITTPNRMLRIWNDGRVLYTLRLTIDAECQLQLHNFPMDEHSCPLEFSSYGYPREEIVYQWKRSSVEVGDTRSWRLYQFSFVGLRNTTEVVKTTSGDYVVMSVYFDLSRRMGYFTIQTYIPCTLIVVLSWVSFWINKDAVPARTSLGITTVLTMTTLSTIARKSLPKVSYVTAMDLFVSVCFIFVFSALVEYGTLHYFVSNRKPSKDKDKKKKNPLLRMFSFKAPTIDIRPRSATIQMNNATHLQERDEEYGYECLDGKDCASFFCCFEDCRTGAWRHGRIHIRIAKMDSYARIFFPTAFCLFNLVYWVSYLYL

[2] = target: Gamma-aminobutyric acid receptor subunit alpha-4/beta3/delta (Homo sapiens, UniProt O14764+P28472+P48169); test: as §1, with “alpha4beta3delta” for “alpha1beta2gamma2”, “CHO” for “mouse LTK”, “manual” for “automated”; type: cell-based
Chain of Gamma-aminobutyric acid receptor subunit alpha-4/beta3/delta (P28472 whole entry): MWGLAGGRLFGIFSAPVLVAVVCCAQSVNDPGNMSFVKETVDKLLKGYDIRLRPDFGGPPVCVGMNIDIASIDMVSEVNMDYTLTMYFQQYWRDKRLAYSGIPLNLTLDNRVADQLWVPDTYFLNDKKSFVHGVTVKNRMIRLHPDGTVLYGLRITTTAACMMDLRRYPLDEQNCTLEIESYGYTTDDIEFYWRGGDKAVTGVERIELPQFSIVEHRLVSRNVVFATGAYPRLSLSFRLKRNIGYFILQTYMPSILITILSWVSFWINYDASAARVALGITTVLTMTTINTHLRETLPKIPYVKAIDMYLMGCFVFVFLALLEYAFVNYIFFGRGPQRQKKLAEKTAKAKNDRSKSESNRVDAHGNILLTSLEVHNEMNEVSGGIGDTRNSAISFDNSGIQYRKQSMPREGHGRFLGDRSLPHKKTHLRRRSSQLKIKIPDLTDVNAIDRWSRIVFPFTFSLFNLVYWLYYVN
Chain of Gamma-aminobutyric acid receptor subunit alpha-4/beta3/delta (P48169 whole entry): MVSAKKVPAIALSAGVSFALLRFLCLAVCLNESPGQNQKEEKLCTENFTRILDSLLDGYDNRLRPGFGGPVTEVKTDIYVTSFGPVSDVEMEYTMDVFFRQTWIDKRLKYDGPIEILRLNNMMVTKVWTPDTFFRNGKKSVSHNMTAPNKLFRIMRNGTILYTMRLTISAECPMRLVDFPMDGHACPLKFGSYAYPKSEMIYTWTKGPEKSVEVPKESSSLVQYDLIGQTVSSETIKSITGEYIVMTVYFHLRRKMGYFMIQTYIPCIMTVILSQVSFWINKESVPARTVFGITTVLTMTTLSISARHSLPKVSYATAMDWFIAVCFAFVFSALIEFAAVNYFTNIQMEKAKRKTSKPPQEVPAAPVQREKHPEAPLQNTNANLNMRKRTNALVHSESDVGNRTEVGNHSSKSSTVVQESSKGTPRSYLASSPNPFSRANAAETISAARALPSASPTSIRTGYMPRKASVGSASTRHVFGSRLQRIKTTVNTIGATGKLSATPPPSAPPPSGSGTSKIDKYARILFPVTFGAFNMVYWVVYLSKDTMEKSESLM
Chain of Gamma-aminobutyric acid receptor subunit alpha-4/beta3/delta (O14764 whole entry): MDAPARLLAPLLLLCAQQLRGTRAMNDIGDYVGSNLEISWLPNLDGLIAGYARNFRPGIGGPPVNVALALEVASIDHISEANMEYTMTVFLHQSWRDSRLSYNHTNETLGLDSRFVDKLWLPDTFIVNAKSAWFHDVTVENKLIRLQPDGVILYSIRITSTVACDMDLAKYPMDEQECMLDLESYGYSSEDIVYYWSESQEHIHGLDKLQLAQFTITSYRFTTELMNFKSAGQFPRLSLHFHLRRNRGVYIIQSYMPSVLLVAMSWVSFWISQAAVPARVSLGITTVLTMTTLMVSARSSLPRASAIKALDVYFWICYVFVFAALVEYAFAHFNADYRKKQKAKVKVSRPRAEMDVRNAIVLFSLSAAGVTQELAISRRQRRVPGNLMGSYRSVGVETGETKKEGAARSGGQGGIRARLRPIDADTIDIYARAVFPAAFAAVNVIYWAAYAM

[3] = target: GABA-A receptor; alpha-1/beta-2/gamma-2 (Homo sapiens) (UniProt P14867+P47870+P18507); test: as §1, with “mV at 0.01 to 10 uM” for “mV”, “assay relative to GABA” for “assay”; type: cell-based
[4] = Displacement of [35S]TBPS from GABA-A receptor in Sprague-Dawley rat cerebral cortex cell membranes after 90 mins in presence of GABA by liquid scintillation counting
[5] = Lipophilicity, logD of compound at 20 uM at pH 7.4 by HPLC/MS-MS analysis; type: physicochemical; settings: buffer
[6] = target: GABA-A receptor alpha-4/beta-3/delta (Homo sapiens, UniProt P28472+P48169+); test: as §1, with “alpha4beta3delta” for “alpha1beta2gamma2”, “CHO” for “mouse LTK”, “mV at 0.01 to 10 uM” for “mV”, “manual” for “automated”, “assay relative to GABA” for “assay”; type: cell-based; settings: 2 s
Chain of GABA-A receptor alpha-4/beta-3/delta (P28472 whole entry): as the sequence (P28472 whole entry) above
Chain of GABA-A receptor alpha-4/beta-3/delta (P48169 whole entry): as the sequence (P48169 whole entry) above
Chain of GABA-A receptor alpha-4/beta-3/delta (Q06278 whole entry, further chain): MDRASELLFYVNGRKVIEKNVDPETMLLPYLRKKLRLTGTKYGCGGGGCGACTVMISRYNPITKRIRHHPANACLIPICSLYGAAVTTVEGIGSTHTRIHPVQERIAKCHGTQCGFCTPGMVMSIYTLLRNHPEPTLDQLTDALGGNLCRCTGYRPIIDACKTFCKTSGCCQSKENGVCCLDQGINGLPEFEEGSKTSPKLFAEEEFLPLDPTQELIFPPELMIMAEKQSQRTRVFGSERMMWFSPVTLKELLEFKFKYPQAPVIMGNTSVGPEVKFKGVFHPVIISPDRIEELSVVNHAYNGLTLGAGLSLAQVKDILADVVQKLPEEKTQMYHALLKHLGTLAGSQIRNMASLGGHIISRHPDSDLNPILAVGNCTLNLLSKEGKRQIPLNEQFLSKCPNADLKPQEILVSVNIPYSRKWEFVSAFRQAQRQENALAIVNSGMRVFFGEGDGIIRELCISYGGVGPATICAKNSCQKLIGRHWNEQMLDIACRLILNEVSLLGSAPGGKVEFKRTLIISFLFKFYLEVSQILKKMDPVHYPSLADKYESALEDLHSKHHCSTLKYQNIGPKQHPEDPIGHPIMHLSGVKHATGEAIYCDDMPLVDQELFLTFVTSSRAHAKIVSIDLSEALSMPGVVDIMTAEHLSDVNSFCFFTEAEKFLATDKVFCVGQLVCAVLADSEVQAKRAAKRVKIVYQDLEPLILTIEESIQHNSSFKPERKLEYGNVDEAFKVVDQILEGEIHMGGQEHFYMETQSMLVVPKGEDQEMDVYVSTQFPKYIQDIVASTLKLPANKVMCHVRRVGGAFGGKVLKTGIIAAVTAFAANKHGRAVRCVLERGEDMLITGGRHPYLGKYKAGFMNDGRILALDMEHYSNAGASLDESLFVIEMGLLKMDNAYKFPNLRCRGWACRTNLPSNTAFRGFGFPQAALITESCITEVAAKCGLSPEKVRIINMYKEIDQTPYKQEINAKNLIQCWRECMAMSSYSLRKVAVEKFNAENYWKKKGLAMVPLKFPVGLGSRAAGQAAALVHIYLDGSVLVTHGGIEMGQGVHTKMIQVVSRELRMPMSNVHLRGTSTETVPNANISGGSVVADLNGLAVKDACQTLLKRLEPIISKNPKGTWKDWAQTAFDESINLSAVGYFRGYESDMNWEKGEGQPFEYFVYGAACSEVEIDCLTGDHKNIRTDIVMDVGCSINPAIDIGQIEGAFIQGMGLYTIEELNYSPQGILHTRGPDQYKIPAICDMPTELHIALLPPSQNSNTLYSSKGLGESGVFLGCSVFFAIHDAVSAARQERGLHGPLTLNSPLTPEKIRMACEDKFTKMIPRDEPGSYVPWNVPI

[7] = Clearance in rat hepatic microsomes at 10 uM preincubated for 5 mins followed by NADPH addition measured over 60 mins by HPLC-MS/MS analysis; type: ADME, Microsome; settings: liver microsomes
[8] = Oral bioavailability in CD1 mouse at 20 mg/kg measured up to 8 hrs post dose by LC/MS-MS analysis; type: ADME, organism-based; settings: in vivo
[9] = Ratio of drug level in CD1 mouse brain to plasma at 5 mg/kg, iv measured at 30 mins post dose by LC/MS-MS analysis; type: ADME, organism-based; settings: read-out: BPR
[10] = Clearance in human hepatic microsomes at 10 uM preincubated for 5 mins followed by NADPH addition measured over 60 mins by HPLC-MS/MS analysis; type: ADME, Microsome; settings: liver microsomes
[11] = Thermodynamic aqueous solubility of compound at 10 uM sonicated for 1 min followed by incubation for 1 hr by HPLC-MS/MS; type: physicochemical; settings: buffer; read-out: Therm_solubility
[12] = Clearance in Sprague-Dawley rat at 5 mg/kg, iv or 20 mg/kg, po measured up to 8 hrs post dose by LC/MS-MS analysis; type: ADME, organism-based; settings: in vivo
[13] = Oral bioavailability in Sprague-Dawley rat at 20 mg/kg measured up to 8 hrs post dose by LC/MS-MS analysis; type: ADME, organism-based; settings: in vivo
[14] = Clearance in mouse hepatic microsomes at 10 uM preincubated for 5 mins followed by NADPH addition measured over 60 mins by HPLC-MS/MS analysis; type: ADME, Microsome; settings: liver microsomes
[15] = Clearance in CD1 mouse at 5 mg/kg, iv or 20 mg/kg, po measured up to 8 hrs post dose by LC/MS-MS analysis; type: ADME, organism-based; settings: in vivo
[16] = Ratio of drug level in Sprague-Dawley rat brain to plasma at 5 mg/kg, iv measured at 30 mins post dose by LC/MS-MS analysis; type: ADME, organism-based; settings: read-out: BPR

SMILES: C[C@@]1(O)CC[C@H]2[C@H](CC[C@@H]3[C@@H]2CC[C@]2(C)[C@@H](C(=O)Cn4ccc(C#N)n4)CC[C@@H]32)C1
- EC50 [1]: 0.225 µM
- EC50 [2]: 0.11 µM
- Emax [3]: 725%
- IC50 [4]: 0.013 µM
- logD at 20 µM [5]: 4.6
- Emax [6]: 330%
- CLhep predicted at 10 µM [7]: 2.5 L/h/kg
- bioavailability [8]: 26%
- Kp at 0.5 h [9]: 1.4
- CLhep predicted at 10 µM [10]: 0.3 L/h/kg
- solubility thermodynamic at 1 h, 10 µM [11]: 1.9 µM (≈ 0.778 µg/mL)
- clearance [12]: 1.5 L/h/kg
- bioavailability [13]: 56%
- CLhep predicted at 10 µM [14]: 5 L/h/kg
- clearance [15]: 2.6 L/h/kg
- Kp at 0.5 h [16]: 1.9
